This assay has as its system P388 leukemia ip, CD2F1 mice, survival T/C. Nature of the assay: NCI In Vivo Anticancer Drug Screen. Data for tumor model P388 Leukemia (intraperitoneal) in CD2F1 (CDF1) mice. The conditions noted are these: endpoint: median survival time, higher = longer survival. Summed up: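 Mice carrying the transplanted tumor received test compound or vehicle. Survival was recorded in each group, and the value is the treated-group measurement divided by that of the vehicle-treated control group.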

Where [1] appears, read: dose: 100.0 mg/kg/injection, schedule: Q04DX003 (ip), vehicle: saline with Tween-80.
The mark [2] stands for this setting: dose: 200.0 mg/kg/injection, schedule: Q04DX003 (ip), vehicle: saline with Tween-80.
Setting [3] is: dose: 25.0 mg/kg/injection, schedule: Q04DX002 (ip), vehicle: saline with Tween-80.
[4] abbreviates: dose: 50.0 mg/kg/injection, schedule: Q01DX009 (ip), vehicle: Klucel (hydroxypropylcellulose) (HPC).
[5] abbreviates: dose: 200.0 mg/kg/injection, schedule: Q01DX009 (ip), vehicle: saline.
The mark [6] stands for this setting: dose: 400.0 mg/kg/injection, schedule: Q01DX009 (ip), vehicle: saline.
Where [7] appears, read: dose: 50.0 mg/kg/injection, schedule: Q04DX002 (ip), vehicle: saline with Tween-80.
[8] abbreviates: dose: 100.0 mg/kg/injection, schedule: Q04DX002 (ip), vehicle: saline with Tween-80.
Where [9] appears, read: dose: 50.0 mg/kg/injection, schedule: Q01DX009 (ip), vehicle: saline with Tween-80.
Where [10] appears, read: dose: 100.0 mg/kg/injection, schedule: Q01DX009 (ip), vehicle: saline with Tween-80.
Where [11] appears, read: dose: 200.0 mg/kg/injection, schedule: Q01DX009 (ip), vehicle: saline with Tween-80.
Setting [12] is: dose: 50.0 mg/kg/injection, schedule: Q01DX009 (ip), vehicle: saline.
Setting [13] is: dose: 100.0 mg/kg/injection, schedule: Q01DX009 (ip), vehicle: Klucel (hydroxypropylcellulose) (HPC).
Setting [14] is: dose: 200.0 mg/kg/injection, schedule: Q01DX009 (ip), vehicle: Klucel (hydroxypropylcellulose) (HPC).

SMILES strings stand for the structures. “And” between values parts separate entries of the source, which are not always exact repeats. Equal entries are not always repeated. Inconclusive results and toxic doses are left out.

Regarding `CCOc1cc2cc(CCO)c(C)cc2cn1`, the T/C (dose: 6.25 mg/kg/injection, schedule: Q01DX009 (ip), vehicle: distilled water + Tween-80) is 110 % of control; the T/C (dose: 12.5 mg/kg/injection, schedule: Q01DX009 (ip), vehicle: distilled water + Tween-80) was 108 % of control; the T/C (dose: 25.0 mg/kg/injection, schedule: Q01DX009 (ip), vehicle: distilled water + Tween-80) was 94 % of control; the T/C (dose: 50.0 mg/kg/injection, schedule: Q01DX009 (ip), vehicle: distilled water + Tween-80) was 94 % of control; the T/C (dose: 100.0 mg/kg/injection, schedule: Q01DX009 (ip), vehicle: distilled water + Tween-80) is 100 % of control and 90 % of control; the T/C (dose: 200.0 mg/kg/injection, schedule: Q01DX009 (ip), vehicle: distilled water + Tween-80) was 95 % of control. Further, under “dose: 400.0 mg/kg/injection, schedule: Q01DX009 (ip), vehicle: distilled water + Tween-80”, the T/C is 104 % of control.
Consider `N=C(N)SCCC(=O)Nc1ccccc1`, for which the T/C was 106 % of control under setting [1] and 106 % of control under setting [2].
On to `Nc1nc(C(Br)Br)c([N+](=O)[O-])c(=O)[nH]1`, for which the T/C by setting is: (dose: 12.0 mg/kg/injection, schedule: Q01DX005 (ip), vehicle: saline with Tween-80) 97 % of control; (dose: 12.5 mg/kg/injection, schedule: Q01DX005 (ip), vehicle: saline with Tween-80) 100 % of control; (dose: 25.0 mg/kg/injection, schedule: Q01DX005 (ip), vehicle: saline with Tween-80) 104 % of control and 94 % of control; (dose: 50.0 mg/kg/injection, schedule: Q01DX005 (ip), vehicle: saline with Tween-80) 112 % of control and 97 % of control.
Turning to `CCCCCCCCCCCCCC1C=CCC1` (stereo not drawn), the T/C (dose: 100.0 mg/kg/injection, schedule: Q01DX001 (ip), vehicle: saline) was 101 % of control; the T/C (dose: 200.0 mg/kg/injection, schedule: Q01DX001 (ip), vehicle: saline) is 99 % of control; the T/C (dose: 400.0 mg/kg/injection, schedule: Q01DX001 (ip), vehicle: saline) was 100 % of control.
As for `CCOC(=O)C1=C(C)OC(C)(OC(C)=O)C1=O` (stereo not drawn), the T/C runs as follows: (dose: 50.0 mg/kg/injection, schedule: Q01DX005 (ip), vehicle: saline) 90 % of control; (dose: 100.0 mg/kg/injection, schedule: Q01DX005 (ip), vehicle: saline) 103 % of control; (dose: 200.0 mg/kg/injection, schedule: Q01DX005 (ip), vehicle: saline) 105 % of control.
As for `C/C=C/C[P+](c1ccccc1)(c1ccccc1)c1cccc2ccccc12`, the T/C by setting is: (dose: 6.25 mg/kg/injection, schedule: Q04DX002 (ip), vehicle: saline with Tween-80) 121 % of control; (dose: 12.5 mg/kg/injection, schedule: Q04DX002 (ip), vehicle: saline with Tween-80) 99 % of control; under setting [3], 108 % of control.
Turning to `O=[N+]([O-])c1ccc([O-])c([I+]c2ccccc2)c1`, the T/C (dose: 12.5 mg/kg/injection, schedule: Q01DX009 (ip), vehicle: Klucel (hydroxypropylcellulose) (HPC)) was 94 % of control; the T/C (dose: 25.0 mg/kg/injection, schedule: Q01DX009 (ip), vehicle: Klucel (hydroxypropylcellulose) (HPC)) is 96 % of control; the T/C under setting [4] was 89 % of control and 94 % of control.
For the molecule `NC(CC(=O)NO)C(=O)O` (stereo not drawn), the T/C runs as follows: under setting [5], 110 % of control; under setting [6], 120 % of control.
With `C1CC[N+](=c2nc(N3CCOCC3)ss2)C1`, the T/C runs as follows: under setting [7], 100 % of control; under setting [8], 99 % of control; (dose: 200.0 mg/kg/injection, schedule: Q04DX002 (ip), vehicle: saline with Tween-80) 99 % of control.
For the molecule `O=C([O-])CN(CCN(CC(=O)[O-])CC(=O)O)CC(=O)O.[Fe+5].[Na+]`, the T/C was 91 % of control under setting [9]; 91 % of control under setting [10]; 86 % of control (dose: 100.0 mg/kg/injection, schedule: Q04DX003 (ip), vehicle: saline sonified); 91 % of control under setting [11]; 90 % of control (dose: 200.0 mg/kg/injection, schedule: Q04DX003 (ip), vehicle: saline sonified).
For the molecule `CCCC1C=C(c2ccccc2)N=C(c2ccccc2)S1` (stereo not drawn), the T/C reads like this: under setting [9], 98 % of control; under setting [10], 101 % of control; under setting [11], 90 % of control.
With `N=C1SCc2ccc3ccccc3c21`, the T/C is 100 % of control under setting [9]; 124 % of control under setting [10]; 97 % of control (dose: 400.0 mg/kg/injection, schedule: Q01DX009 (ip), vehicle: saline with Tween-80).
As to `Clc1ccc(C(c2ccccc2)N2CCNCC2)cc1` (stereo not drawn), the T/C is 99 % of control (dose: 25.0 mg/kg/injection, schedule: Q04DX003 (ip), vehicle: saline with Tween-80); 113 % of control (dose: 50.0 mg/kg/injection, schedule: Q04DX003 (ip), vehicle: saline with Tween-80); 102 % of control under setting [1].
On to `O=c1ccnc(Sc2ccc([N+](=O)[O-])cc2[N+](=O)[O-])[nH]1`, for which the T/C is, setting by setting: under setting [1], 99 % of control; under setting [2], 99 % of control.
Take `O=c1[nH]c2ccccc2[nH]c1=O`: the T/C under setting [12] was 100 % of control; the T/C under setting [10] is 94 % of control; the T/C under setting [11] was 92 % of control; the T/C under setting [5] is 100 % of control and 97 % of control; the T/C under setting [6] was 88 % of control.
Take `Cc1onc(-c2ccccc2)c1C(=O)OCCOc1ccc(C(F)(F)F)cc1[N+](=O)[O-]`: the T/C runs as follows: (dose: 60.0 mg/kg/injection, schedule: Q01DX005 (ip), vehicle: saline with Tween-80) 99 % of control; (dose: 120.0 mg/kg/injection, schedule: Q01DX005 (ip), vehicle: saline with Tween-80) 90 % of control; (dose: 240.0 mg/kg/injection, schedule: Q01DX005 (ip), vehicle: saline with Tween-80) 90 % of control.
For `CN(C)C(=O)NC1(N(C)C)CC1`, the T/C was 104 % of control (dose: 25.0 mg/kg/injection, schedule: Q01DX009 (ip), vehicle: saline); 100 % of control under setting [12]; 97 % of control (dose: 100.0 mg/kg/injection, schedule: Q01DX009 (ip), vehicle: saline).
As to `CCCOc1ccc(-c2nc(-c3ccc([N+](=O)[O-])cc3)cs2)cc1`, the T/C is 113 % of control under setting [4], 104 % of control under setting [13] and 104 % of control under setting [14].
For the molecule `CCOC(=O)CCC1CCCCC1=O` (stereo not drawn), the T/C reads like this: under setting [9], 103 % of control; under setting [10], 93 % of control; under setting [11], 103 % of control.
With `C=CC1CCCC[S+]1CC(=O)OCC` (stereo not drawn), the T/C by setting is: under setting [3], 91 % of control; under setting [7], 101 % of control; under setting [8], 103 % of control and 109 % of control.
On to `COc1c(C(C)(C)C)cc(C(C)(C)C)c(OC)c1Br`, for which the T/C is, setting by setting: under setting [4], 100 % of control; under setting [13], 94 % of control; under setting [14], 87 % of control.
Consider `C=C1C(=O)C23C(O)C1CCC2C12COC3(O)C(O)C1C(C)(C)CCC2OC(C)=O` (stereo not drawn), for which the T/C was 117 % of control (dose: 10.0 mg/kg/injection, schedule: Q01DX009 (ip), vehicle: saline with Tween-80); 117 % of control (dose: 20.0 mg/kg/injection, schedule: Q01DX009 (ip), vehicle: saline with Tween-80); 110 % of control (dose: 25.0 mg/kg/injection, schedule: Q01DX009 (ip), vehicle: saline with Tween-80).
As to `CCC[CH2][Sn]1([CH2]CCC)[O]C(=O)C[S]1`, the T/C reads like this: (dose: 0.75 mg/kg/injection, schedule: Q01DX009 (ip), vehicle: saline) 100 % of control; (dose: 1.5 mg/kg/injection, schedule: Q01DX009 (ip), vehicle: saline) 108 % of control; (dose: 2.0 mg/kg/injection, schedule: Q01DX009 (ip), vehicle: saline with Tween-80) 115 % of control; (dose: 2.0 mg/kg/injection, schedule: Q04DX003 (ip), vehicle: saline with Tween-80) 118 % of control; (dose: 4.5 mg/kg/injection, schedule: Q04DX003 (ip), vehicle: saline with Tween-80) 150 % of control.
`CC(=O)[O][Hg][O]C(C)=O`: the T/C (dose: 1.25 mg/kg/injection, schedule: Q01DX009 (ip), vehicle: saline with Tween-80) was 95 % of control.

Source of the values: PubChem BioAssay AID330 (DTP/NCI, 2004).
